Laboratory results published in ChEMBL document CHEMBL1201862, “PubChem BioAssay data set” (2004).
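Dose response: 5 concentrations. Exposure: 48 h. Format: 96-well plates. Endpoint: linear interpolation; highest concentration if not reached. GI50 is the concentration that inhibits growth by half.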 Calls of active or inactive are those of the source. Cut-off read from the data, not from the text of the source: active = GI50 up to about 1.1 µM and inactive = higher.

Tests used:
Experiment in all cases: DTP human tumour cell line panel, 48 h
[1] = tested on: HCT-15
[2] = tested on: MDA-N
[3] = tested on: K562
[4] = tested on: SK-OV-3
[5] = tested on: HT-29
[6] = tested on: NCI-H460
[7] = tested on: A498
[8] = tested on: MDA-MB-231
[9] = tested on: RXF 393
[10] = tested on: ACHN
[11] = tested on: Hs-578T
[12] = tested on: SNB-75
[13] = tested on: UO-31
[14] = tested on: HCT-116
[15] = tested on: NCI-H522
[16] = tested on: CCRF-CEM
[17] = tested on: U-251
[18] = tested on: SF-295
[19] = tested on: SF-539

SMILES | GI50 [1] [µM] | GI50 [2] | GI50 [3] | GI50 [4] | GI50 [5] | GI50 [6] | GI50 [7] | GI50 [8] | GI50 [9] | GI50 [10] | GI50 [11] | GI50 [12] | GI50 [13] | GI50 [14] | GI50 [15] | GI50 [16] | GI50 [17] | GI50 [18] | GI50 [19]
O=C1C=C2CO[C@H]3OC[C@H](O)[C@@H]1[C@@H]23 | 44 | 35.2 µM (inactive) | 26.9 µM (inactive) | > 100 µM (inactive) | > 100 µM (inactive) | > 100 µM (inactive) | > 100 µM (inactive) | 73.3 µM (inactive) | 19.9 µM (inactive) | > 100 µM (inactive) | > 100 µM (inactive) | 43 µM (inactive) | 37.3 µM (inactive) | 88.1 µM (inactive) | 16.5 µM (inactive) | 19 µM (inactive) | 19.7 µM (inactive) | > 100 µM (inactive) | –
C=C=C(CC(CC(=C)Br)(C(=O)OC)C(=O)OC)S(=O)(=O)c1ccccc1 | 1.51 | 2.44 µM (inactive) | 1.48 µM (inactive) | 16.6 µM (inactive) | 1.62 µM (inactive) | 5.86 µM (inactive) | 5.6 µM (inactive) | 1.98 µM (inactive) | 1.83 µM (inactive) | 2.39 µM (inactive) | 2.39 µM (inactive) | 6.22 µM (inactive) | 1.71 µM (inactive) | 0.92 µM (active) | 0.556 µM (active) | 0.497 µM (active) | 1.5 µM (inactive) | 13.4 µM (inactive) | 1.8 µM (inactive)
C[n+]1c(-c2ccccc2)cc2/c(=C\c3ccc([N+](=O)[O-])cc3)c3ccccc3n21 | 14.3 | 2.37 µM (inactive) | – | 4.8 µM (inactive) | 0.957 µM (active) | 1.45 µM (inactive) | 11 µM (inactive) | 3.24 µM (inactive) | 4.45 µM (inactive) | 3.1 µM (inactive) | 1.29 µM (inactive) | 3.18 µM (inactive) | 6.05 µM (inactive) | 1.02 µM (active) | 0.385 µM (active) | 0.692 µM (active) | 1.43 µM (inactive) | 3.21 µM (inactive) | 0.615 µM (active)
CN(C)CCCNC(=O)c1c(O)c2ccccc2[nH]c1=O | > 100 | > 100 µM (inactive) | > 100 µM (inactive) | > 100 µM (inactive) | > 100 µM (inactive) | > 100 µM (inactive) | > 100 µM (inactive) | > 100 µM (inactive) | 95.7 µM (inactive) | > 100 µM (inactive) | > 100 µM (inactive) | > 100 µM (inactive) | 14.5 µM (inactive) | > 100 µM (inactive) | > 100 µM (inactive) | > 100 µM (inactive) | – | 22.9 µM (inactive) | > 100 µM (inactive)
C=CCN1C(=O)N/C(=C\c2ccc(Cl)cc2)C1=O | > 100 | > 100 µM (inactive) | > 100 µM (inactive) | > 100 µM (inactive) | > 100 µM (inactive) | > 100 µM (inactive) | 22.6 µM (inactive) | > 100 µM (inactive) | > 100 µM (inactive) | > 100 µM (inactive) | > 100 µM (inactive) | > 100 µM (inactive) | – | > 100 µM (inactive) | 87.7 µM (inactive) | > 100 µM (inactive) | > 100 µM (inactive) | > 100 µM (inactive) | > 100 µM (inactive)
N#Cc1nc(C2CCC2)oc1N | > 100 | > 100 µM (inactive) | > 100 µM (inactive) | > 100 µM (inactive) | > 100 µM (inactive) | > 100 µM (inactive) | > 100 µM (inactive) | > 100 µM (inactive) | > 100 µM (inactive) | > 100 µM (inactive) | > 100 µM (inactive) | > 100 µM (inactive) | > 100 µM (inactive) | > 100 µM (inactive) | > 100 µM (inactive) | 22.8 µM (inactive) | > 100 µM (inactive) | > 100 µM (inactive) | > 100 µM (inactive)
CCCCC(Sc1cc(Cl)c(C)cc1S(=O)(=O)Nc1nc(N)n[nH]1)C(=O)OC (stereo not given) | > 10 | > 10 µM (inactive) | > 10 µM (inactive) | > 10 µM (inactive) | > 10 µM (inactive) | > 10 µM (inactive) | > 10 µM (inactive) | > 10 µM (inactive) | > 10 µM (inactive) | > 10 µM (inactive) | > 10 µM (inactive) | > 10 µM (inactive) | – | > 10 µM (inactive) | > 10 µM (inactive) | > 10 µM (inactive) | > 10 µM (inactive) | > 10 µM (inactive) | > 10 µM (inactive)
Cc1ccc(C(=O)Nc2ccc(CP(=O)(O)O)cc2)cc1NC(=O)Nc1cc(C(=O)Nc2ccc(CP(=O)(O)O)cc2)ccc1C | > 100 | > 100 µM (inactive) | – | > 100 µM (inactive) | > 100 µM (inactive) | > 100 µM (inactive) | > 100 µM (inactive) | > 100 µM (inactive) | > 100 µM (inactive) | – | > 100 µM (inactive) | > 100 µM (inactive) | > 100 µM (inactive) | > 100 µM (inactive) | > 100 µM (inactive) | > 100 µM (inactive) | > 100 µM (inactive) | > 100 µM (inactive) | > 100 µM (inactive)
